Assay results published in patent US20220073532A1, “INHIBITORS OF CGAS ACTIVITY AS THERAPEUTIC AGENTS” (BELLBROOK LABS, LLC, priority 2019, published 2022).

Experiments:
[1] = tested on: THP1 cGAS KO cells; assay: Specificity test in THP-Dual cGAS knockout cells; type: cell-based, human
Excerpt: FIG. 5 includes (A) a schematic showing the THP1 dual-cell reporter system: secreted luciferase reports on IRF3-driven transcription; secreted alkaline phosphatase reports on NFκB-driven transcription, both downstream of cGAS/STING. THP-Dual cGAS knockout cells are used to test for non-specific effects; (B) a plot of the dose response for inhibition of Luc expression by Compound 15; (C) a plot of the dose response for inhibition of Luc expression by the TBK1 inhibitor, BX-795; and (D) a plot of the dose response for inhibition of SEAP expression by Compound 15.
IFN induction in human monocyte cell lines: The human monocyte cell line THP-1 gives a robust cGAS/STING-dependent type I IFN response and has been used extensively for studies on the pathway. Typically, cells are stimulated by transfection with dsDNA and gene expression is assessed using an ELISA for IFNβ, a reporter gene assay, and/or cGAS/STING pathway markers such as STING phosphorylation. These assays were validated using the TBK1 inhibitor, BX-795, which acts downstream of cGAS/STING, as a probe; THP-1 Dual cells (Invivogen, San Diego) are used as the reporter cell line for routine compound testing (FIG. 5A). These assays were optimized, including equalizing responses with transfected DNA and cGAMP and comparing responses between undifferentiated cells and cells that have been differentiated to macrophages (which show little difference). […] Stimulation of THP-1 Dual cells with damage-associated molecular pattern molecules (DAMPs) that act through pattern recognition receptors other than cGAS provides another way to confirm the specificity of putative cGAS inhibitors.

[2] = Human microsomal stability (NADPH); type: in vitro ADME; conditions: liver microsomes, read-out: Human MS Stability (NADPH) t1/2
Experimental: ADME/PK: Compounds are tested in Caco-2 and MDR1-MDCK permeability assays to provide a measure of intestinal absorption, blood-brain-permeability and efflux by P-glycoprotein (P-gp), a frequent obstacle to effective CNS delivery. CNS drugs are associated with high passive membrane permeability (Papp>1×10^−6 cm/sec) and have low efflux ratios (Papp(B-A)/Papp(A-B)<2.5). Metabolic stability is tested using mouse and human liver microsomes incubated with NADPH for CYP-dependent metabolism and with UDPGA for glucuronidation. Compounds are tested for pharmacokinetics and brain penetration in mice using oral, intravenous and intraperitoneal administration.

[3] = molecular target: cGAS (Homo sapiens, UniProt Q8N884); assay: SPR / biophysical binding to cGAS; conditions: enzymatic analysis and SPR, TSA
Excerpt: Following confirmation of hits at three concentrations and removal of compounds with visually evident reactivity or metabolic liabilities, non-stoichiometric inhibitors, aggregators, DNA intercalators and redox-active compounds were triaged (FIG. 2E) using established assays. […] Initial SAR based on more than 100 commercially available analogs provided additional confidence that the compounds were bonafide inhibitors, and informed potential scaffold hops and toleration for modifications.
A highly efficient platform for preclinical drug discovery (FIG. 3) was assembled, providing for development of cGAS inhibitors, which is improved by the addition of a powerful computational modeling method and in vivo PK studies (FIG. 3). […]
Biochemical and biophysical analysis: Potency and MOA studies, including Mn^2+ sensitivity, are performed using the cGAS enzymatic assay. […] Competition with ATP and GTP is assessed by comparing basal IC50 values to those in the presence of saturating ATP or GTP, and subsequently confirmed by measuring velocity vs. substrate at varying ATP or GTP levels. […]

[4] = tested on: Kinase, PDE, GTPase, ENPP1 (Abl1, PKA, TBK1, Rac1, PDE4A, ENPP1); assay: Selectivity panel of nucleotide-utilizing enzymes; type: biochemical
Experimental: Selectivity profiling: A panel of nucleotide-utilizing enzymes that included kinases (Abl1, PKA, TBK1—which transduces cGAS/STING signals, see FIG. 5A) a GTPase (Rac1), a phosphodiesterase (PDE4A), and ENPP1, a nucleotidase that degrades cGAMP, was used preliminarily. cGAS assays were used to perform dose response measurements with cGAS inhibitors. In addition to these enzymes, inhibitors are tested with three other members of the oligoadenylate synthases (OAS), nucleic acid sensors that activate innate immunity via production of short, 2′-5′ oligoadenylate second messengers. Methods for expression and purification of the human and/or porcine enzymes in E. coli or baculovirus-infected insect cells have been developed as well as a simple, absorbance-based assay using commercially available pyrophosphate kit. In addition, an FP-based assay (competitive displacement of a fluor-cGAMP tracer) is developed to test compounds as ligands for STING (which could be one explanation for the partial activity of Compound 15 in cells stimulated with cGAMP) (FIG. 5).

Chain of cGAS (Q8N884 whole entry): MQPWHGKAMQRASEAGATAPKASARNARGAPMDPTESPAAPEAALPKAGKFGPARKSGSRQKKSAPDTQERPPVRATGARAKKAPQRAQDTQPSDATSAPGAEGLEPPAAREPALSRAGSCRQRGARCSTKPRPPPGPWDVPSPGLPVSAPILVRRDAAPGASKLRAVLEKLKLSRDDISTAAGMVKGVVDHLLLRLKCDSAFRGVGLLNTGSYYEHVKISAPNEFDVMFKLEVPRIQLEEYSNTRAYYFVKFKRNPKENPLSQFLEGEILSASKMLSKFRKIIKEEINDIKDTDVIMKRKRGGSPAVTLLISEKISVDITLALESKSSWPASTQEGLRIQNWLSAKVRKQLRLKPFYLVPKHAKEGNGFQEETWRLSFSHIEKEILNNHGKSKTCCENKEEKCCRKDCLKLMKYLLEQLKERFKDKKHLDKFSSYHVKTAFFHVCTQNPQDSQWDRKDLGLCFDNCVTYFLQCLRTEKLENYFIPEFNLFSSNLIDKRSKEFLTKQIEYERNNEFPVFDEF

half-life [2]: > 2 h
binding stoichiometry to cGAS [3]: Stoichiometric binding (1:1)
Off-Target Activity (Kinase, PDE, GTPase, ENPP1) [4]: None
inhibitory activity with a panel of nucleotide-utilizing enzymes ([4]; at 200 μM): lack of inhibitory activity
Compound: Cc1nc(N2CCC[C@H]2C(=O)O)c2oc3ccccc3c2n1 [Compound 15, (2-methylbenzofuro[3,2-d]pyrimidin-4-yl)-L-proline]
effect on IRF3-driven Luc expression in THP1 cGAS KO cells stimulated with LPS ([1]; LPS-stimulated, cGAS KO): no effect
inhibition in cGAMP-stimulated cells lacking cGAS ([1]; cGAMP-stimulated, cGAS knockout): essentially no inhibition
